Source: patent US20070254319A1, “IDENTIFICATION OF A CONS[…] CANCER STEM CELL” (University of Pittsburgh - Of the Commonwealth System of …, priority 2006, published 2007)

Legend:
[1] = test system: K562-G185 cells (ABCB1/MDR1 transfectant); experiment: Hoechst 33342 efflux (side population, SP) in MDR1-transfected K562-G185 cells with and without inhibitors; type: cell-based, human; settings: CD117- cells; Ho33342 8 microM and R123 0.13 microM, 90 min
Method: (§1) Cells were stained with anti-CD117 and incubated for 90 min in the presence of Ho33342 (8 microM, ˜5 microg/mL) and R123 (0.13 microM) with and without inhibitors. PI was added immediately before acquisition on the MoFlo flow cytometer in order to eliminate dead cells. Events were gated to exclude cell clusters and dead cells. The side population (SP) phenotype (blue gate) and R123 excluding cells (single parameter histogram left of the dashed line) were measured on CD117− (top panels) and CD117+ (bottom panels).
(§2) Here, the SP cells (within the blue gate in the left plots) is color evented blue, whereas SP negative cells are shown in gray.
(§3) Simultaneous measurement of R123 and Ho33342 dye efflux. […] Two cell lines were used, the parent line K562, which has a small subpopulation of CD117+ cells which constitutively express ABCG2 (BCRP1), and the ABCB1 (MDR1) transfectant line K562-G185 (39) (FIG. 9). G185 cells were maintained in vincristine (100 ng/mL) to select against ABCB1 negative cells.

[2] = test system: parental K562 cells (native ABCG2); experiment: Hoechst 33342 efflux (side population, SP) in parental K562 cells with and without inhibitors; type: cell-based, human
Method: as §1, §2, §3

[3] = test system: ABCG2 (BCRP); experiment: Hoechst 33342 / R123 efflux (SP phenotype) in freshly isolated therapy naive non-small cell lung tumor cells; type: cell-based; settings: human, probe Hoechst 33342; inhibitor 10 microM; coincubation with Hoechst 33342 8 microM and R123 0.13 microM, 90 minutes at 37° C.
Method: Antibody stained suspended tumor cells were incubated simultaneously with the ABCG2/ABCB1 substrate Hoechst 33342 (8 microM) plus the ABCB1 substrate rhodamine 123 (R123, 0.13 microM) for 90 minutes at 37° C. Propidium iodide (PI, 10 microg/mL) was added immediately before sample acquisition. All events were gated on PI excluding (live), non-hematopoietic singlets. Five million events were collected. This basic experimental design has been repeated, with modifications, on 10 samples from untreated breast, ovarian, gastric and lung tumors with consistent results.
SP (top panels) and non-SP cells (bottom panels) were further characterized: A proportion of SP cells also excluded the ABCB1 substrate dye R123. These accounted for 29% of the SP cells (color-evented red in the dot plots) and accounted for almost all of the cells with low forward and side light scatter consistent with a resting morphology (FIG. 5). […] A significant proportion of both SP and non-SP cells expressed CD90, often in combination with epithelial specific antigen, HEA.

Structure (SMILES)	effect on the side population (SP), in words [1]	effect on Ho33342 transport, in words ([2]; CD117+ population of parental K562 cells)	inhibition of the native SP phenotype, in words ([2]; CD117- cells, native SP 1.42% of cells, Ho33342 8 microM, 90 min)	inhibition at 90 min, 10 microM [3] [%]
COc1ccc2c3c([nH]c2c1)[C@H](C=C(C)C)N1C(=O)[C@@H]2CCCN2C(=O)[C@@H]1C3 [fumitremorgin]	not affected	abrogates	equally inhibited	75
CC[C@]1(O)C[C@H]2CN(CCc3c([nH]c4ccccc34)[C@@](C(=O)OC)(c3cc4c(cc3OC)N(C=O)[C@H]3[C@@](O)(C(=O)OC)[C@H](OC(C)=O)[C@]5(CC)C=CCN6CC[C@]43[C@@H]65)C2)C1 [vincristine]	not affected			
